According to ChEMBL document CHEMBL1201862, “PubChem BioAssay data set” (2004):
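Following 48 hours of exposure in 96-well plates, responses at five concentrations were used to interpolate endpoints linearly. GI50 is the concentration that inhibits growth by half.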 The source made the active and inactive calls. No stated cut-off is given here; in the data, active = GI50 up to about 1.1 µM and inactive = higher.

How the values were obtained:
Assay in all cases: NCI tumour cell line growth inhibition, 48 h
SNB-19 = tested on: SNB-19
786-0 = tested on: 786-0
A498 = tested on: A498
LOX IMVI = tested on: LOX IMVI
HOP-18 = tested on: HOP-18
NCI-H23 = tested on: NCI-H23
NCI-H226 = tested on: NCI-H226
CAKI-1 = tested on: CAKI-1
SK-MEL-2 = tested on: SK-MEL-2
OVCAR-5 = tested on: OVCAR-5
SN12C = tested on: SN12C
MOLT-4 = tested on: MOLT-4
ACHN = tested on: ACHN
SF-295 = tested on: SF-295
COLO 205 = tested on: COLO 205
IGROV-1 = tested on: IGROV-1
SW-620 = tested on: SW-620
HCT-15 = tested on: HCT-15
HCT-116 = tested on: HCT-116
HOP-62 = tested on: HOP-62
SK-OV-3 = tested on: SK-OV-3
HL-60 = tested on: HL-60
HOP-92 = tested on: HOP-92
OVCAR-3 = tested on: OVCAR-3
SR = tested on: SR
M19-MEL = tested on: M19-MEL
SNB-75 = tested on: SNB-75
DMS-114 = tested on: DMS-114
Malme-3M = tested on: Malme-3M
KM-20L2 = tested on: KM-20L2
UACC-62 = tested on: UACC-62
CCRF-CEM = tested on: CCRF-CEM
NCI-H460 = tested on: NCI-H460
DMS-273 = tested on: DMS-273
RXF 393 = tested on: RXF 393
HCC 2998 = tested on: HCC 2998
K562 = tested on: K562
KM12 = tested on: KM12
XF498 = tested on: XF498
SK-MEL-5 = tested on: SK-MEL-5
UACC-257 = tested on: UACC-257
LXFL 529 = tested on: LXFL 529
SF-539 = tested on: SF-539
SK-MEL-28 = tested on: SK-MEL-28
U-251 = tested on: U-251
OVCAR-8 = tested on: OVCAR-8
A549 = tested on: A549
SNB-78 = tested on: SNB-78
SF-268 = tested on: SF-268
EKVX = tested on: EKVX
NCI-H522 = tested on: NCI-H522
M14 = tested on: M14
RPMI-8226 = tested on: RPMI-8226
HT-29 = tested on: HT-29
UO-31 = tested on: UO-31
TK-10 = tested on: TK-10
RXF 631 = tested on: RXF 631
OVCAR-4 = tested on: OVCAR-4

## O=C(CCc1cc(-c2ccccc2)[nH]c(=S)n1)Nc1ccccc1[N+](=O)[O-]
SNB-19
  GI50: > 100 µM (inactive)
786-0
  GI50: > 100 µM (inactive)
A498
  GI50: > 100 µM (inactive)
LOX IMVI
  GI50: > 100 µM (inactive)
HOP-18
  GI50: > 100 µM (inactive)
NCI-H23
  GI50: > 100 µM (inactive)
NCI-H226
  GI50: > 100 µM (inactive)
CAKI-1
  GI50: > 100 µM (inactive)
SK-MEL-2
  GI50: > 100 µM (inactive)
OVCAR-5
  GI50: > 100 µM (inactive)
SN12C
  GI50: > 100 µM (inactive)
MOLT-4
  GI50: > 100 µM (inactive)
ACHN
  GI50: > 100 µM (inactive)
SF-295
  GI50: > 100 µM (inactive)
COLO 205
  GI50: > 100 µM (inactive)
IGROV-1
  GI50: > 100 µM (inactive)
SW-620
  GI50: > 100 µM (inactive)
HCT-15
  GI50: > 100 µM
HCT-116
  GI50: > 100 µM (inactive)
HOP-62
  GI50: > 100 µM (inactive)
SK-OV-3
  GI50: > 100 µM (inactive)
HL-60
  GI50: > 100 µM (inactive)
HOP-92
  GI50: > 100 µM (inactive)
OVCAR-3
  GI50: > 100 µM (inactive)
SR
  GI50: > 100 µM (inactive)
M19-MEL
  GI50: > 100 µM (inactive)
SNB-75
  GI50: > 100 µM (inactive)
DMS-114
  GI50: > 100 µM (inactive)
Malme-3M
  GI50: > 100 µM (inactive)
KM-20L2
  GI50: > 100 µM (inactive)
UACC-62
  GI50: > 100 µM (inactive)
CCRF-CEM
  GI50: > 100 µM (inactive)
NCI-H460
  GI50: > 100 µM (inactive)
DMS-273
  GI50: > 100 µM (inactive)
RXF 393
  GI50: > 100 µM (inactive)
HCC 2998
  GI50: > 100 µM (inactive)
K562
  GI50: > 100 µM (inactive)
KM12
  GI50: > 100 µM (inactive)
XF498
  GI50: 42 µM (inactive)
SK-MEL-5
  GI50: > 100 µM (inactive)
UACC-257
  GI50: > 100 µM (inactive)
LXFL 529
  GI50: > 100 µM (inactive)
SF-539
  GI50: > 100 µM (inactive)
SK-MEL-28
  GI50: > 100 µM (inactive)
U-251
  GI50: > 100 µM (inactive)
OVCAR-8
  GI50: > 100 µM (inactive)
A549
  GI50: > 100 µM (inactive)
SNB-78
  GI50: > 100 µM (inactive)
SF-268
  GI50: > 100 µM (inactive)
EKVX
  GI50: > 100 µM (inactive)
NCI-H522
  GI50: > 100 µM (inactive)
M14
  GI50: > 100 µM (inactive)
RPMI-8226
  GI50: > 100 µM (inactive)
HT-29
  GI50: > 100 µM (inactive)
UO-31
  GI50: > 100 µM (inactive)
TK-10
  GI50: > 100 µM (inactive)
RXF 631
  GI50: > 100 µM (inactive)

## COc1ccc(CN2CC(C)(C)C2=O)c(OC)c1
SNB-19
  GI50: > 100 µM (inactive)
786-0
  GI50: > 100 µM (inactive)
A498
  GI50: > 100 µM (inactive)
LOX IMVI
  GI50: > 100 µM (inactive)
HOP-18
  GI50: > 100 µM (inactive)
NCI-H23
  GI50: > 100 µM (inactive)
NCI-H226
  GI50: > 100 µM (inactive)
SK-MEL-2
  GI50: > 100 µM (inactive)
SN12C
  GI50: > 100 µM (inactive)
MOLT-4
  GI50: > 100 µM (inactive)
ACHN
  GI50: > 100 µM (inactive)
SF-295
  GI50: > 100 µM (inactive)
COLO 205
  GI50: > 100 µM (inactive)
IGROV-1
  GI50: > 100 µM (inactive)
SW-620
  GI50: > 100 µM (inactive)
HCT-15
  GI50: > 100 µM
HCT-116
  GI50: > 100 µM (inactive)
HOP-62
  GI50: > 100 µM (inactive)
SK-OV-3
  GI50: > 100 µM (inactive)
HL-60
  GI50: > 100 µM (inactive)
HOP-92
  GI50: > 100 µM (inactive)
OVCAR-3
  GI50: > 100 µM (inactive)
OVCAR-4
  GI50: > 100 µM (inactive)
M19-MEL
  GI50: > 100 µM (inactive)
SNB-75
  GI50: 70.8 µM (inactive)
DMS-114
  GI50: > 100 µM (inactive)
Malme-3M
  GI50: > 100 µM (inactive)
KM-20L2
  GI50: > 100 µM (inactive)
UACC-62
  GI50: > 100 µM (inactive)
CCRF-CEM
  GI50: > 100 µM (inactive)
NCI-H460
  GI50: > 100 µM (inactive)
DMS-273
  GI50: > 100 µM (inactive)
RXF 393
  GI50: > 100 µM (inactive)
HCC 2998
  GI50: > 100 µM (inactive)
K562
  GI50: > 100 µM (inactive)
KM12
  GI50: > 100 µM (inactive)
XF498
  GI50: > 100 µM (inactive)
SK-MEL-5
  GI50: > 100 µM (inactive)
UACC-257
  GI50: > 100 µM (inactive)
SF-539
  GI50: > 100 µM (inactive)
SK-MEL-28
  GI50: > 100 µM (inactive)
U-251
  GI50: > 100 µM (inactive)
OVCAR-8
  GI50: > 100 µM (inactive)
A549
  GI50: > 100 µM (inactive)
SNB-78
  GI50: > 100 µM (inactive)
SF-268
  GI50: > 100 µM (inactive)
EKVX
  GI50: > 100 µM (inactive)
NCI-H522
  GI50: > 100 µM (inactive)
M14
  GI50: > 100 µM (inactive)
RPMI-8226
  GI50: > 100 µM (inactive)
HT-29
  GI50: > 100 µM (inactive)
UO-31
  GI50: > 100 µM (inactive)
TK-10
  GI50: > 100 µM (inactive)
RXF 631
  GI50: > 100 µM (inactive)
